# Measurements reported in US10736898B2, “Positive allosteric modulators of the muscarinic acetylcholine receptor M4” (Vanderbilt University, priority 2017, dated 2020).
# pIC50: −log10 of the molar value.
# Tests used:
# [1] = In vivo pharmacokinetics in rats (IV and PO)
# Procedure: Compound 1 was evaluated in several in vivo studies to investigate its metabolism and pharmacokinetics.
# Male Sprague-Dawley rats (n=2) weighing around 300 g were purchased from Harlon Laboratories (Indianapolis, Ind.) and implanted with catheters in the carotid artery and jugular vein. For intravenous (IV) administration, male Sprague-Dawley rats (n=2) were each administered a single 0.2 mg/kg dose of the test article via a jugular cannula and then blood samples were collected via a carotid artery catheter at 0.033, 0.117, 0.25, 0.5, 1, 2, 4, 7, 12, and 24 hours post-dosing from each animal. For oral (PO) administration, fasted male Sprague-Dawley rats (n=2) were each administered a single 3 mg/kg dose of the test article via oral gavage and then blood samples were collected via a carotid artery catheter at 0.25, 0.5, 1, 2, 4, 7, 12, and 24 hours post-dosing from each animal. Upon sampling, blood was collected into chilled, EDTA-fortified tubes and immediately placed on wet ice. Samples were then centrifuged for 10 minutes at 3500 rcf (at 4° C.) to obtain plasma. The plasma samples were stored at −80° C. until analysis. During the analysis, the samples were thawed on bench at room temperature and 20 μL was transferred to 96-well plate. 120 μL of 50 nM carbamazepine in acetonitrile was added to the plasma sample to precipitate the protein and provide the internal standard. After vortex and centrifugation, 75 μL of supernatant was transferred to another 96-well plate that contained 75 μL of water. 10 μL of the diluted supernatant was injected onto an AB Sciex 4000 or 5500 LC-MS/MS system for quantitation. The detection range for analyte was 0.5 to 5000 ng/mL utilizing a quadratic curve with 1/x^2 weighting. Sciex Analyst 1.4.2 software was used for data acquisition and quantitation. Pharmacokinetic parameters were determined from individual animal data using non-compartmental analysis (Model 201) in WinNonlin (v5.3, Pharsight Corp., Mountain View, Calif.).
# P450 2C9 = P450 2C9 (Homo sapiens, UniProt P11712); assay: P450 2C9 inhibition; assay type: in vitro ADME
# Chain of P450 2C9 (P11712 whole entry): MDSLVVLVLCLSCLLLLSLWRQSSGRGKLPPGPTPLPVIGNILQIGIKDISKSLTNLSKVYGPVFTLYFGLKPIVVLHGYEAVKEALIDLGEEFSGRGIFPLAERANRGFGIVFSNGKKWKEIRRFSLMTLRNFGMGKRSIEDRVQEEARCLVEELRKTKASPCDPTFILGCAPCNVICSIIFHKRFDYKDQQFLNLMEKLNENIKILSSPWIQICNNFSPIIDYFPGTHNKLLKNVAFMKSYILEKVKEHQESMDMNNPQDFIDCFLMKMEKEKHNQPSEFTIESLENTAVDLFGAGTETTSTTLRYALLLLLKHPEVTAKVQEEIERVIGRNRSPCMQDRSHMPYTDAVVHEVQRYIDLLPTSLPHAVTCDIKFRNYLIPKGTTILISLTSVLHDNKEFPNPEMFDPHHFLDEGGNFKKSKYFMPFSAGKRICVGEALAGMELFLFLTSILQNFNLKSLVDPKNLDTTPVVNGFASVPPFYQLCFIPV
# Procedure: (§1) Compound 1 was evaluated in several well-known in vitro assays to investigate both metabolism and pharmacokinetics. Bidirectional permeability/efflux was determined in MDCK-MDR1 cells, which originate from transfection of Madin Darby canine kidney (MDCK) cells with the MDR1 gene. These assays were performed according to known methods as generally described in the following references: Conde-Ceide et al. ACS Med. Chem. Lett. 2015, 6, 716-720; Morris et al. J. Med. Chem. 2014, 57, 10192-10197; and Bubser et al. ACS Chem. Neurosci. 2014, 5, 920-942.
# male Sprague-Dawley rats = assay: Reversal of amphetamine-induced hyperlocomotion in rats; assay type: in vivo, rat
# Procedure: Drugs: d-Amphetamine hemisulfate was obtained from Sigma (St. Louis, Mo.). Salt-correction was used to determine the correct amount of the d-amphetamine hemisulfate form in milligrams to add to sterile water in order to yield a 0.75 mg/mL solution, which would be dosed at 1 mL/kg body weight of each animal. […] The solutions were formulated so that animals were injected with a volume equal to 10 mL/kg body weight for all compounds. The appropriate amount according to the dosage was mixed in 10% Tween 80 (Sigma) 90% sterile water. The mixtures were then vortexed and stored in a 39° C. sonication bath for 1 hour, until in a microsuspension (except for the highest dose, which was a suspension).
# Animals: Male Sprague-Dawley rats weighing 239-300 grams and averaging 265 g (Harlan, Inc., Indianapolis, Ind.) were used. They were housed in the animal care facility certified by the American Association for the Accreditation of Laboratory Animal Care (AALAC) under a 12-hour light/dark cycle (lights on: 6 a.m.; lights off: 6 p.m.) and had free access to food and water. The animals used in this experiment were food-deprived the evening before experimentation for oral dosing of compound/vehicle. The experimental protocols performed during the light cycle were approved by the Institutional Animals Care and Use Committee of Vanderbilt University and conformed to the guidelines established by the National Research Council Guide for the Care and Use of Laboratory Animals.
# Amphetamine-induced Hyperlocomotion: Male Harlan Sprague Dawley rats were habituated in Smart Open Field locomotor activity test chambers (Hamilton-Kinder, San Diego, Calif.) with 16×16 photo beams to automatically record locomotor activity. […] They were monitored for an additional 30 minutes and then injected subcutaneously with vehicle or […] amphetamine. Animals were then monitored for an additional 60 minutes, for a total of 120 minutes. Data were expressed as changes in ambulation defined as total number of beam breaks per 5 minute interval. […]
# Data Analysis: Behavioral data were analyzed using a two-way ANOVA with main effects of treatment and time. […] In addition, the total number of beam breaks from the amphetamine administration (65 min) to the end of the study (120 min) was calculated and graphed. Percent Reversal was calculated as follows using Microsoft Excel: In each animal, total ambulation from t=65 to t=120 was summed. The mean of each sum was calculated in the VAMP group. Then, for each animal, Percent Reversal was calculated with the following formula: Percent Reversal=100−{[(total ambulation in each animal from t=65 to t=120)/(mean of each sum from t=65 to t=120 in VAMP group)]*100}. The mean Percent Reversal, as well as the standard error, was calculated for each dose group using GraphPad Prism V5.04.
# Human CLint = assay type: in vitro ADME
# Procedure: as §1
# Rat Fu (brain) = assay type: in vitro ADME
# Procedure: as §1
# P450 2D6 = P450 2D6 (Homo sapiens, UniProt P10635); assay: P450 2D6 inhibition; assay type: in vitro ADME
# Chain of P450 2D6 (P10635 whole entry): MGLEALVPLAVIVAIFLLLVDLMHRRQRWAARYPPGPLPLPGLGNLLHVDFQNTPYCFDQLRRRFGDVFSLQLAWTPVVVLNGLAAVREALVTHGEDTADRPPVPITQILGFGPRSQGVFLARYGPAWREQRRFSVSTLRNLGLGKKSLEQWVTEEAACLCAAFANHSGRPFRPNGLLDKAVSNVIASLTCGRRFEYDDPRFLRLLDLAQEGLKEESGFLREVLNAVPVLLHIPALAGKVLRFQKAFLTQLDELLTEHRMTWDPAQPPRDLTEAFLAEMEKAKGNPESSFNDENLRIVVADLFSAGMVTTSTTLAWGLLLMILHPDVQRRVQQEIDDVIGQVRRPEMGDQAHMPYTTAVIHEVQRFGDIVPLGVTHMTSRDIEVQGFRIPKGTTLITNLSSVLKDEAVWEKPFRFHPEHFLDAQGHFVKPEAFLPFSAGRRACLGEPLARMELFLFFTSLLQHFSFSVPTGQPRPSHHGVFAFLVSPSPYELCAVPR
# Procedure: as §1
# [2] = test system: 68 primary molecular targets; assay: Eurofins LeadProfilingScreen (binding); conditions: at 10 μM (binding); 68 targets
# Source text: The screen includes 68 primary molecular targets, including several CNS targets recommended by the EMEA to evaluate drug dependence potential.
# Dog Fu (plasma) = assay type: in vitro ADME
# Procedure: as §1
structure (smiles),measurement,setting,value
"Cc1nc(C)c2c(n1)sc1c(NCc3ccc(C(C)(C)O)cc3)ncnc12 [Compound 1, 2-(4-(((7,9-Dimethylthieno[2,3-d:4,5-d′]dipyrimidin-4-yl)amino)methyl)phenyl)propan-2-ol]",Rat oral F,[1]; 3 mg/kg PO,>100%
same,clearance,"[1]; male, Sprague-Dawley, plasma, rat, IV 0.2 mg/kg, read-out: Rat CLp",7.1 mL/min/kg
same,Vd,"[1]; male, Sprague-Dawley, plasma, rat, IV 0.2 mg/kg, read-out: Rat Vss",1.1 L/kg
same,half-life,"[1]; male, Sprague-Dawley, rat, plasma, read-out: Rat Elim. t1/2 (converted)",1.9 h
same,pIC50,P450 2C9,4.77
same,percent reversal of amphetamine-induced hyperlocomotion,male Sprague-Dawley rats; 1 mg/kg p.o.,30.5%
same,percent reversal of amphetamine-induced hyperlocomotion,male Sprague-Dawley rats; 3 mg/kg p.o.,41.1%
same,percent reversal of amphetamine-induced hyperlocomotion,male Sprague-Dawley rats; 10 mg/kg p.o.,54.2%
same,CLint scaled,Human CLint,26 mL/min/kg
same,fraction unbound,Rat Fu (brain),0.016
same,pIC50,P450 2D6,< 4.52
same,inhibition of each target in the LeadProfilingScreen,[2],< 50%
same,fraction unbound,Dog Fu (plasma),0.072
